Test results from US20200383983A1, “CGRP ANTAGONISTS FOR THE TREATMENT OF MEDICATION OVERUSE HEADACHE, POST-TRAUMATIC HEADACHE, POST-CONCUSSION SYNDROME AND VERTIGO” (Allergan Sales, LLC, priority 2019, published 2020).

Legend:
[1] = stated generally, small molecules compared with monoclonal antibodies; cited from earlier work
[2] = Case scenario: patient with post-traumatic headache (PTH), subjective pain rating; assay type: in vivo, human; details: for pain rating at worst, subjective rating scale of zero (no pain) to 10 (worst pain): before treatment 10; for pain rating at best, subjective rating scale of zero (no pain) to 10 (worst pain): before treatment eight; for pain rating on average, subjective rating scale of zero (no pain) to 10 (worst pain): before treatment nine
Source text: (§1) The following non-limiting examples provide those of ordinary skill in the art with possible case scenarios and specific methods to treat conditions within the scope of the present disclosure and are not intended to limit the scope of the disclosure.
A person complains of right-sided frontal headaches. The patient stated the headaches began 3 months ago after accidentally being hit in the face at the right frontal, maxillary, and zygomatic bones with a heavy instrument. They deny any loss of consciousness at the time of the incident and describes the pain as a “constant achy” to “stabbing” pain primarily over the right eye and right zygomatic bone. They complain of intermittent blurred vision when the pain becomes “stabbing.” They also complain of intermittent tinnitus. On a subjective rating scale of zero (no pain) to 10 (worst pain), the patient rates their pain as eight at best, nine on average, and 10 at worst. Results from a radiographic scan of the skull, CT scan of the brain, and MRI scan of the brain and cervical spine are normal. Results from slit lamp and neurologic testing are also normal. The patient is diagnosed to have PTH. The patient can be treated with ubrogepant at a dose of 100 mg, once a day. The treatment with ubrogepant can reduce the pain experienced by the patient and the patient can rate their pain as five at best, six on average, and nine at worst.
A person complains of right-sided frontal headaches. The patient stated the headaches began 3 months ago after accidentally being hit in the face at the right frontal, maxillary, and zygomatic bones with a heavy instrument. They deny any loss of consciousness at the time of the incident and describes the pain as a “constant achy” to “stabbing” pain primarily over the right eye and right zygomatic bone. They complain of intermittent blurred vision when the pain becomes “stabbing.” They also complain of intermittent tinnitus. On a subjective rating scale of zero (no pain) to 10 (worst pain), the patient rates their pain as eight at best, nine on average, and 10 at worst. Results from a radiographic scan of the skull, CT scan of the brain, and MRI scan of the brain and cervical spine are normal. Results from slit lamp and neurologic testing are also normal. The patient is diagnosed to have PTH. The patient can be treated with erenumab at a dose of 70 mg by subcutaneous administration. A month after the erenumab administration, the patient can rate their pain as five at best, six on average, and nine at worst.

[3] = Case scenario: patient with chronic migraine and medication overuse headache, weaning off Fiorinal; assay type: in vivo, human
Source text: as §1
[…] This responded well to Excedrin at that time. As they became older their headaches became more frequent and by the time they were in their late 20's they had headache on more than half the days of the month. Excedrin was no longer effective, and their primary care physician prescribed Fiorinal (aspirin, caffeine and barbiturate compound). […] […] Their primary care physician, on routine blood work noted: worsening renal and liver function tests. The patient reported depression and disability related to their headache disorder. They could not work or participate in family events. They were referred to a neurologist who specialized in headache disorders. They diagnosed them with episodic migraine without aura that had transformed to chronic migraine with associated medication overuse headache. They also diagnosed end organ damage with hepatic and renal damage secondary to analgesic overuse. They recommended a preventive treatment and that they taper off of Fiorinal. The patient started Topiramate as a migraine preventive and despite their best efforts they were unable to wean off of Fiorinal, due to breakthrough headache. They returned to the Neurologist and they prescribed Ubrogepant 50 mg daily for 10 days. […] They continued Topiramate treatment and used Ubrogepant 50 mg a day as needed for breakthrough headache. […] They were able to return to work and to participate in family events.

[4] = Case scenario: patient with migraine without aura and medication overuse headache (triptan overuse); assay type: in vivo, human; details: 50 mg once a day, patient averaging 25 doses of oral triptan per month
Source text: as §1
A person visits a headache clinic with almost daily migraine attacks. Their migraines have been ongoing since they were […]. […] Eventually, however, the migraine attacks became longer, lasting up to 3 or 4 days and forcing them to take 4 or 5 doses of triptan per attack. Currently, they are averaging 25 doses of oral triptan per month. They are diagnosed with migraine without aura and medication overuse headache. They are treated with ubrogepant at a dose of 50 mg, once a day.

[5] = 70 mg subcutaneous, a month after administration

C[C@@H]1[C@H](c2ccccc2)C[C@H](NC(=O)c2cnc3c(c2)C[C@@]2(C3)C(=O)Nc3ncccc32)C(=O)N1CC(F)(F)F [ubrogepant]
half-life [1]: measured in hours | pain rating at worst, subjective rating scale of zero (no pain) to 10 (worst pain) ([2]; 100 mg once a day): nine | pain rating at best, subjective rating scale of zero (no pain) to 10 (worst pain) ([2]; 100 mg once a day): five | pain rating on average, subjective rating scale of zero (no pain) to 10 (worst pain) ([2]; 100 mg once a day): six | need of as-needed use for breakthrough headache ([3]; 50 mg a day as needed, after 3 months): once or twice a month | effect on migraine attacks and recurrence ([3]; 50 mg a day as needed, continued Topiramate): effectively ended their migraine attacks and they had no recurrence requiring re-treatment | need of as-needed use for breakthrough headache ([3]; 50 mg a day as needed, first month after weaning off Fiorinal): twice a week | weaning off the overused medication (Fiorinal) ([3]; 50 mg daily for 10 days, with Topiramate as preventive): able to successfully wean off of Fiorinal | intensity and frequency of migraine [4]: can reduce the intensity and frequency of migraine

C[C@@H]1[C@H](c2c(F)ccc(F)c2F)C[C@H](NC(=O)c2cnc3c(c2)C[C@@]2(C3)C(=O)Nc3ncccc32)C(=O)N1CC(F)(F)F [atogepant]
half-life [1]: measured in hours

N[C@@H]1c2cccnc2[C@H](OC(=O)N2CCC(n3c(=O)[nH]c4ncccc43)CC2)CC[C@H]1c1cccc(F)c1F [rimegepant]
half-life [1]: measured in hours

B1: erenumab (antibody, chains of the INN, looked up, V domains shown)
VH: QVQLVESGGGVVQPGRSLRLSCAASGFTFSSFGMHWVRQAPGKGLEWVAVISFDGSIKYSVDSVKGRFTISRDNSKNTLFLQMNSLRAEDTAVYYCARDRLNYYDSSGYYHYKYYGMAVWGQGTTVTVSS
VL: QSVLTQPPSVSAAPGQKVTISCSGSSSNIGNNYVSWYQQLPGTAPKLLIYDNNKRPSGIPDRFSGSKSGTSTTLGITGLQTGDEADYYCGTWDSRLSAVVFGGGTKLTVL
pain rating at worst, subjective rating scale of zero (no pain) to 10 (worst pain) [2, 5]: nine | pain rating at best, subjective rating scale of zero (no pain) to 10 (worst pain) [2, 5]: five | pain rating on average, subjective rating scale of zero (no pain) to 10 (worst pain) [2, 5]: six
